Data reported in patent US20070202047A1, “Polyamine-substituted ligands for use as contrast agents” (priority 2006, published 2007).

Experiments:
[1] = Relaxivity measurements in PBS solution; type: physicochemical; details: 37° C.; for longitudinal relaxation rate R1(Gd): 250 MHz (5.4 T); for molar chemical shift Δδ(Gd): H2O signal relative to external HDO; for molar chemical shift Δδ(Gd) / molar relaxivity r1: 250 MHz; for molar relaxivity r1: PBS
Protocol: Relaxivity Measurements. A phosphate-buffered saline (PBS, pH 7.4) reference solution and solutions of the Gd complexes Gd-3.1. (60 mM), Gd-5.1. (60 mM), and Gd-6.1. […] Each capillary was then inserted into a standard 5-mm NMR tube containing D2O (99.96% D) for ^1H relaxation rate measurements at 250 MHz (5.4 T, Bruker AC-250 spectrometer) and 37° C. using the inversion-recovery method. The relaxation rates R1 were determined by a three-parameter nonlinear least-squares fit of the intensity data to the equation M(τ)=M0[1−2q exp(−R1τ)] with 8-11 τ values. The transverse relaxation rate R2 was estimated from the H2O signal linewidth Δν at half height (R2=πΔν). The standard error of estimate for R1 was <0.7% for all samples. The relaxivities were estimated as r1 [s^−1 mM^−1]=[R1(Gd)−R1(0)]/[Gd], where [Gd] is the concentration of Gd complex in the sample with relaxation rate R1(Gd), and R1(0) is the rate for the reference sample of PBS. Analogous calculations were made for r2 from R2.
For the ^1H relaxation rate measurements at 250 MHz (5.4 T, Bruker AC-250 spectrometer) and 37° C., sample temperature was regulated to better than ±0.1° C. using the variable temperature unit of the spectrometer. The solutions studied were placed in capillaries to reduce the sample volume and the resulting intensity of the H2O signal, thus avoiding the influences of radiation damping on the relaxation behavior. The D2O solution added to the 5-mm NMR tube provided a field/frequency lock signal and residual HDO as a reference signal. An inversion-recovery pulse sequence (RD-180°-τ-90°-acquisition) was executed with a composite 180° pulse of constant phase, four-step phase cycling of the 90° pulse (7.3 μs) for four transients, and 8-11 τ values. For each sample the list of τ values was chosen after determining the approximate τnull for the “null” point of the recovery curve by trial measurements, and the delay RD was set to at least 10τnull. The resulting spectra were phase and baseline corrected manually, and the H2O signal intensity was determined by the peak picking algorithm of the NMR software.
The relaxation rates R1 were determined by a three-parameter nonlinear least-squares fit of the intensity data to the equation M(τ)=M0[1−2q exp(−R1τ)], where q was an additional fitting parameter used to account for the quality of spin inversion. The theoretical value of q is 1.0, and the fitted values were in the range 0.92-0.95. The transverse relaxation rate R2 was estimated from the H2O signal linewidth Δν at half height (R2=πΔν), and the chemical shift Δδ(Gd) of the H2O signal from the capillary relative to the HDO signal from the external D2O was determined as an additional measure of the paramagnetism of the Gd complex. The standard error of estimate for R1was <0.7% for all samples. The relaxivities were estimated as r1 […]=[R1(Gd)−R1(0)]/[Gd], where [Gd] is the concentration of Gd complex in the sample with relaxation rate R1(Gd), and R1(0) is the rate for the reference sample of PBS. Analogous calculations were made for r2 from R2 and for Δδ(Gd).

[2] = Biodistribution and excretion in tumor-bearing ACI rats; type: in vivo, rat; details: for gadolinium obtained in the faeces / gadolinium obtained in the urine: 24 h after injecting
Protocol: Animal models. For in vivo tumor studies 2×10^6 MH3924A tumor cells were injected subcutaneously into the right thigh of male ACI rats (Charles River, Sulzfeld, Germany) weighing 220 to 260 g. All animal experiments were performed in compliance with the German Animal Protection Laws (Permission 35-9185.81/G-7-03, Reg.-Praesidium, Karlsruhe, Germany).
Biodistribution and excretion data. At 14 days after tumor inoculation, when tumors had reached a diameter of ca. 5-6 mm, the biodistribution experiments were initiated. Each animal (210-250 g) was given an intravenous tail-vein injection of […] Magnevist® (Schering, Berlin, Germany) or […] of Gd-5.1. or Gd-6.1. 1 h and 24 hs post-injection (p.i.), the animals were weighed, sacrificed by cervical dislocation and dissected. Organs or tissues were blotted dry and weighed. Samples containing 100-500 mg of the tumor or organs were digested with concentrated HNO3 (Superselect; Merck, Darmstadt, Germany) and H2O2 under microwave heating with a Mars 5 apparatus (CEM GmbH, Kamp-Lintfort, Germany). To each sample 100 μL of an aqueous solution of rhodium chloride (1 μg/mL) were added so that Rh-103 could be used as an internal quantification standard. Gd-160 measurements were performed with the ICP-MS instrument mentioned above. The gadolinium concentrations were determined using standard curves created prior to tissue analyses. The results were expressed as % ID/g tissue. Urine and faeces were gathered in order to measure the excreted amount of Gd(III).

[3] = 1 h post i.v. injection, one ACI rat, scaled to Gd dose of 100 μmol/kg
[4] = 24 h post i.v. injection, one ACI rat
[5] = 24 h post i.v. injection, one ACI rat, scaled to Gd dose of 100 μmol/kg

longitudinal relaxation rate R1(Gd) ([1]; 60 mM in PBS) | molar chemical shift Δδ(Gd) [1] | molar relaxivity r1 [1] | Gd concentration, Blood [2, 3] | Gd concentration, Bone (femur) [2, 3] | Gd concentration, Bone Marrow (femur) [2, 3] | Gd concentration, Kidney (+urine) [2, 3] | Gd concentration, Liver [2, 3] | Gd concentration, Lung [2, 3] | Gd concentration, Small Intestine [2, 3] | Gd concentration, Tumor (MH3924A) [2, 3] | gadolinium obtained in the faeces ([2]; ACI rat) | gadolinium obtained in the urine ([2]; ACI rat) | Excretion as % of total dose [2, 4] | Gd concentration, Blood [2, 5] | Gd concentration, Bone (femur) [2, 5] | Gd concentration, Bone Marrow (femur) [2, 5] | Gd concentration, Faeces [2, 5] | Gd concentration, Kidney (+urine) [2, 5] | Gd concentration, Liver [2, 5] | Compound | other results
469 ± 2 s⁻¹ | 0.125 ppm mM-^−1 | 7.8 s⁻¹ mM⁻¹ | – | – | – | – | – | – | – | – | – | – | – | – | – | – | – | – | – | CCN(CC)CCNC(=O)CN(CCN(CCN(CC(=O)[O-])CC(=O)N(CCN)CCN)CC(=O)[O-])CC(=O)[O-].[Gd+3] [Gd-3.1] | –
137.9 ± 0.2 s⁻¹ | 0.045 ppm mM-^−1 | 2.3 s⁻¹ mM⁻¹ | 7.8 nmol/g | 2.2 nmol/g | 0.8 nmol/g | 120.3 nmol/g | 4.2 nmol/g | 12.7 nmol/g | 18.9 nmol/g | 5.5 nmol/g | about 1% | 98% | 98% | 0.1 nmol/g | 0.9 nmol/g | 1.7 nmol/g | 16.6 nmol/g | 40.9 nmol/g | 2.0 nmol/g | NCCN(CCN)C(=O)CN(CCN(CCN(CC(=O)[O-])CC(=O)N(CCN)CCN)CC(=O)[O-])CC(=O)[O-].[Gd+3] [Gd-5.1] | Gd concentration, Brain [2, 3]: 0.5 nmol/g; Gd concentration, Muscle (femur) [2, 3]: 1.6 nmol/g; Gd concentration, Spleen [2, 3]: 4.7 nmol/g; Gd concentration, Urine (cumulative) [2, 3]: 2116.7 nmol/g; Gd concentration, Lung [2, 5]: 24.2 nmol/g; Gd concentration, Small Intestine [2, 5]: 0.4 nmol/g; Gd concentration, Tumor (MH3924A) [2, 5]: 0.6 nmol/g; Gd concentration, Urine (cumulative) [2, 5]: 537.2 nmol/g; agent still present in the tumor ([2]; 24 h post injection, MH3924A tumor, ACI rat): about 0.020 fmol/cell; preferential tissue binding (biodistribution) ([2]; ACI rat bearing MH3924A tumor, i.v.): binds preferentially to lung tissue and parts of the excretory system e.g. small intestine and kidneys
– | 0.161 ppm mM-^−1 | 6.5 s⁻¹ mM⁻¹ | 4.8 nmol/g | 3.3 nmol/g | 0.9 nmol/g | 141.6 nmol/g | 6.6 nmol/g | 20.2 nmol/g | 4.0 nmol/g | 7.2 nmol/g | about 1% | 98% | 94% | 0.1 nmol/g | 1.0 nmol/g | 2.3 nmol/g | 41.4 nmol/g | 62.3 nmol/g | 5.5 nmol/g | NCCCCN(CCCN)C(=O)CN(CCN(CCN(CC(=O)[O-])CC(=O)N(CCCN)CCCCN)CC(=O)[O-])CC(=O)[O-].[Gd+3] [Gd-6.1] | Gd concentration, Lung [2, 5]: 5.9 nmol/g; Gd concentration, Small Intestine [2, 5]: 0.1 nmol/g; Gd concentration, Tumor (MH3924A) [2, 5]: 0.8 nmol/g; Gd concentration, Urine (cumulative) [2, 5]: 650.9 nmol/g; longitudinal relaxation rate R1(Gd) ([1]; 30 mM in PBS): 194.5 ± 0.9 s⁻¹
